US20070105810A1, “THERAPEUTICS” (priority 2003, published 2007)

How the values were obtained:
[1] = tested on: T cell receptor/CD3 complex mediated Ca2+ signalling; experiment: Ca2+ signalling evoked by crosslinking of CD3 in rat encephalitogenic (MBP-specific) T cells; format: cell-based; conditions: for TCR/CD3-induced Ca2+ signalling: T-lymphocytes, summary statement
Source text: Assuming that the NAADP/Ca^2+ signalling system plays an important role in T cell receptor/CD3 mediated activation, one would expect an inhibitory effect of BZ 52 on stimulation of rat encephalitogenic CD4-positive T cells via CD3 crosslinking. Thus, Fura2-loaded rat encephalitogenic CD4-positive T cells (resting) were stimulated by anti-CD3 followed by crosslinking of the primary antibody (FIG. 11, black line). A rapid high increase of [Ca^2+]i followed by a briefly elevated sustained phase was observed.
Fura2-loaded rat T cells were analyzed for [Ca^2+]i by fluorimetry. First arrow indicates addition of anti-CD3 mAb, second arrow indicates addition of a crosslinking secondary antibody. In case of BZ 52 cells were preincubated with BZ 52 (500 μM) for 60 min at RT.
Resting rat T cells were loaded with fura2/AM and suspension measurements were carried out as described in [4]. Arrows indicate time point of addition of antibody or Ca^2+ solution. A, Addition of anti-CD3-mAb (1st arrow) and a crosslinking, secondary antibody (2nd arrow). B, Bar chart summarizing data from A (transient Ca^2+ peak and Ca^2+ plateau; mean±s.e.m, n=8-9). C, Under Ca^2+ free conditions the anti-CD3-mAb (1st arrow) and secondary crosslinking antiserum (2nd arrow) were added; then [Ca^2+] was increased to 1 mM (3rd arrow). D, Bar chart summarizing data from C (transient Ca^2+ release peak, Ca^2+ influx peak, Ca^2+ influx plateau and the difference between Ca^2+ influx peak and plateau (=Overshoot); mean±s.e.m, n=6-7). The negative controls are without stimulation by anti-CD3-mAb.
[Ca^2+]i was measured by using the fluorescent indicator Fura2/AM. In brief, 10^7 cells were loaded with Fura2/AM, and fluorescence was determined in batches of 1.5×10^6 cells with an Hitachi F-2000 fluorimeter at excitation and emission wavelengths of 340 and 380 nm (exc.) and 505 nm (em.), respectively. Measurements were carried out at 20° C. At the end of each single measurement maximal and minimal ratios were determined by addition of Triton X-100 and EGTA/Tris.

[2] = tested on: NAADP/Ca2+ signalling in Jurkat T cells; experiment: Ca2+ signalling evoked by microinjection of NAADP in Jurkat T cells; format: cell-based, human; conditions: for NAADP-mediated Ca2+ signalling: T-lymphocytes, summary statement
Description: NAADP (final concentration 100 nM), IP3 (final concentration 4 μM), and BZ52 (final concentration 1 mM) were injected into single Jurkat T cells while [Ca^2+]i was analyzed by Ca^2+ imaging. Data are presented as mean±SEM (n=4 to 13).
Effect of NAADP-microinjection and co-injection with BZ52 (1 mM) on [Ca^2+]i in human Jurkat T-Lymphocytes. Upper panel: microinjection of 100 nM NAADP (arrow), middle panel: microinjection of the vehicle buffer (arrow), lower panel: co-microinjection of 100 nM NAADP plus 1 mM BZ52 (arrow).
The Jurkat T cells were loaded with fura-2/AM and kept in the dark at room temperature until use. Glass coverslips were coated first with BSA (5 mg/ml) and subsequently with poly-L-lysine (0.1 mg/ml). Small chamber slides consisting of a rubber O-ring were sealed on thin (0.1 mm) glass coverslips by silicon grease. Then, 60 μl buffer A containing 140 mM NaCl, 5 mM KCl, 1 mM MgSO4, 1 mM CaCl2, 1 mM NaH2PO4, 5.5 mM glucose, and 20 mM HEPES (pH 7.4), and 40 μl cell suspension (2*10^6 cells/ml) suspended in the same buffer were added into the small chamber and the coverslip was mounted on the stage of a fluorescence microscope (Leica DM IRE2).
Ratiometric Ca^2+ imaging was performed as described earlier. In brief, we used an Improvision imaging system (Heidelberg, Germany) built around the Leica microscope at 100-fold magnification. Illumination at 340 and 380 nm was carried out using a monochromator system (Polychromator IV, TILL Photonics, Graefelfing, Germany). Images were taken with a gray-scale CCD camera (type C4742-95-12ER; Hamamatsu, Enfield, United Kingdom; operated in 8-bit mode). The optimal relation of spatial to temporal resolution for the ratiometric measurements was obtained using a spatial resolution of 512×640 pixel, resulting in a pixel length of 129 nm/pixel (at 100-fold magnification). […]
Ratiometric Ca^2+ imaging—The cells were loaded with fura-2/AM and kept in the dark at room temperature until use. […] The coverslip with cells slightly attached to the BSA/poly-L-lysine coating was mounted on the stage of a fluorescence microscope (Leica DM IRE2). […]

CCCCN(CCCC)C(=O)C[n+]1cccc(C(=O)O)c1 [BZ52, 3-Carboxy-1-dibutylcarbamoylmethyl-pyridinium]
TCR/CD3-induced Ca2+ signalling [1]: efficiently inhibited | Ca2+ signalling upon CD3-crosslinking ([1]; preincubation 60 min with 500 μM BZ52): significantly inhibited | NAADP-mediated Ca2+ signalling [2]: efficiently inhibited | effect of NAADP on Ca2+ signal (peak and plateau) ([2]; co-injection of BZ52 1 mM with NAADP 100 nM): almost completely antagonized

CCCCCCCCNC(=O)C[n+]1cccc(C(=O)O)c1.[Br-] [BZ194, 3-Carboxy-1-Octylcarbamoylmethyl-Pyridinium]
TCR/CD3 complex mediated Ca2+ signalling ([1]; MBP-specific rat T cell suspensions, standard and Ca2+-free/Ca2+-reintroduction protocol): partially blocked | TCR/CD3-induced Ca2+ signalling [1]: efficiently inhibited | sustained Ca2+ signalling ([1]; both protocols, MBP-specific rat T cells): almost completely abolished | NAADP-mediated Ca2+ signalling [2]: efficiently inhibited
